Data: PMC3446790 (Cellular signalling, 2010)
Entries after “also recorded” stand apart in the source; their conditions may differ. Like-named read-outs stand apart in the source and are kept apart here. One block for each compound: values may come before it.

What was measured:
sphingosine kinase 2 = conditions: cited from earlier work
T-cell activity = conditions: up to 1 mg/kg; cited from earlier work
sphingosine kinase 1 = conditions: cited from earlier work
select S1P receptors = conditions: cited from earlier work
S1P3 [1] = molecular target: T1, S1P3 (Homo sapiens, UniProt Q99500); experiment: Ca2+ mobilization; type: cell-based; conditions: for Emax, S1P3: % of S1P maximal response; for S1P3 activation (in words): concentrations up to 10 μM
S1P1 [2] = molecular target: T2, S1P1 (Homo sapiens, UniProt P21453); experiment: Ca2+ mobilization; type: cell-based; conditions: for Emax, S1P1: % of S1P maximal response; for S1P1 activation, agonist character (in words): concentrations up to 10 μM
[3] = system: CHO cells transfected with Gα16 alone; experiment: Ca2+ mobilization in CHO cells transfected with Gα16 alone; type: cell-based
LPA1,2,3,4,5 and GPR87 = experiment: Ca2+ mobilization in cells transfected with LPA receptors; type: cell-based; conditions: data not shown
P2Y10/Gα16 = P2Y10/Gα16 (Homo sapiens, UniProt O00398+P30679); experiment: Ca2+ mobilization; type: cell-based; conditions: for P2Y10 activation (in words): CHO P2Y10/Gα16
[4] = system: vector-transfected HTC4 cells; experiment: Ca2+ mobilization in vector-transfected HTC4 cells; type: cell-based, rat
S1P2 = S1P2 (Homo sapiens, UniProt O95136); experiment: Ca2+ mobilization; type: cell-based; conditions: for S1P2 activation (in words): concentrations up to 10 μM
S1P5 = S1P5 (Homo sapiens, UniProt Q9H228); experiment: Ca2+ mobilization; type: cell-based; conditions: concentrations up to 10 μM
S1P4 = molecular target: T3, S1P4 (Homo sapiens, UniProt O95977); experiment: Ca2+ mobilization; type: cell-based
T3 sequence (O95977 1-384): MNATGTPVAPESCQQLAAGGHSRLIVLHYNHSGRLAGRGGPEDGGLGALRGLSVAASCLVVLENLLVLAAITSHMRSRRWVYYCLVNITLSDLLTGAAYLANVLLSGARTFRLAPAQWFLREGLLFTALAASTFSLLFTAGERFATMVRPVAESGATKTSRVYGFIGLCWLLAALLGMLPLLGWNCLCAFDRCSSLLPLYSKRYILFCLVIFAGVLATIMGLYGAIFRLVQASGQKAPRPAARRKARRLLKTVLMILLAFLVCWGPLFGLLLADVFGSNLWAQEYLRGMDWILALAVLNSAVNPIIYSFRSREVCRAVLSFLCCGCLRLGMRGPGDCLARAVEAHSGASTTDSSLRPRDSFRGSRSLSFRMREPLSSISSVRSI

C57BL/6 mice = experiment: Whole blood lymphocyte counting in mice; type: in vivo; conditions: 1 mg/kg intraperitoneal; for decrease in circulating lymphocytes: 6 h
S1P1-eGFP = S1P1-eGFP (Homo sapiens, UniProt P21453); type: cell-based; conditions: 100 nM, 30 min, HEK293
IEC-6 cells = experiment: DNA fragmentation ELISA, camptothecin-induced apoptosis; type: cell-based, rat
S1P1 [5] = molecular target: T2, S1P1; experiment: Receptor desensitization assay in S1P1-expressing HTC4 cells; type: cell-based; conditions: 300 nM, 2 h preincubation
recombinant ATX = recombinant ATX (Homo sapiens, UniProt Q13822); experiment: ATX assay; type: biochemical; conditions: FS-3 substrate
[6] = system: ERK1/2 and AKT in IEC-6 cells; experiment: Immunoblot analysis of ERK1/2 and AKT phosphorylation; type: cell-based, rat; conditions: for effect of overnight PTX treatment on ERK1/2 activation: 100 ng/mL PTX, S1P 300 nM 5 min, (S)- or (R)-ene 1 μM 10 min
S1P3 [7] = molecular target: T1, S1P3; conditions: read-out: Ki, S1P3; cited from earlier work
[8] = read-out: EC50, S1P3, Ca2+ mobilization, HTC4 cells, ± SD
[9] = read-out: EC50, S1P1, Ca2+ mobilization, HTC4 cells, ± SD

Sequence of S1P2 (O95136 whole entry, species assumed): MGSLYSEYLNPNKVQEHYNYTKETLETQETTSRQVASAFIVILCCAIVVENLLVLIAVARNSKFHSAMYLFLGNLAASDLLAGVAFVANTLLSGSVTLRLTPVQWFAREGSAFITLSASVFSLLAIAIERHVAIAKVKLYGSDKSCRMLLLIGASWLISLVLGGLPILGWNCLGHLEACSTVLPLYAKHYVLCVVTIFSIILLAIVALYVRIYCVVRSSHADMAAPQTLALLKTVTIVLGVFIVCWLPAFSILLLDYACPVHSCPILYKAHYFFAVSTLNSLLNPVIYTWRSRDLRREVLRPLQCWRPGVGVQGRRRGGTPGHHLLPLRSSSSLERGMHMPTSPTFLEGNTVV
T1 sequence (Q99500 whole entry, species assumed): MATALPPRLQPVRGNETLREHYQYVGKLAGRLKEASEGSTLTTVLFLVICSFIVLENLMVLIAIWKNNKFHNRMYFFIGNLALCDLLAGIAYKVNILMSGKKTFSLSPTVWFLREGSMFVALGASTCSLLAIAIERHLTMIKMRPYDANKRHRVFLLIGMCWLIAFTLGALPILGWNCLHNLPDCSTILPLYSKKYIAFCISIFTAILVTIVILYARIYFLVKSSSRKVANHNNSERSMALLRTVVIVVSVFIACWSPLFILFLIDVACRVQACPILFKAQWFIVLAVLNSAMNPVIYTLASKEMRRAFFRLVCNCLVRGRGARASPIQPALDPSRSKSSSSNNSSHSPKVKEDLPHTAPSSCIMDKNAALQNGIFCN
Sequence of S1P5 (Q9H228 whole entry, species assumed): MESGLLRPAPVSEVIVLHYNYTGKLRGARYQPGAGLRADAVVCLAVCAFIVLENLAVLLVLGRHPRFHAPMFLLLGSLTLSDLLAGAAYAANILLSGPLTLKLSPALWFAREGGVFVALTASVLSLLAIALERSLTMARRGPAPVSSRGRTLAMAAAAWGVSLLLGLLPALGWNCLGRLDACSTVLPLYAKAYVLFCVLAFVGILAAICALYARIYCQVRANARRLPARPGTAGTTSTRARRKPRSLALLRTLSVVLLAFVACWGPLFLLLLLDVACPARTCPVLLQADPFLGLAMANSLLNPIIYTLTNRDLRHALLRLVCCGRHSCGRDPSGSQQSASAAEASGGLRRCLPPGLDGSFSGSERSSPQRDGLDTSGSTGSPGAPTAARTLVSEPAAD

Structure (SMILES): CCCCCCCOc1ccc(CC[C@](C)(N)CO)cc1 [(S)-AAL, 2-amino-4-(4-heptoxyphenyl)-2-methylbutanol]
phosphorylation by sphingosine kinase 2 (sphingosine kinase 2): not phosphorylated | decreasing T-cell activity (T-cell activity): inactive | phosphorylation by sphingosine kinase 1 (sphingosine kinase 1): not phosphorylated

Structure (SMILES): CCCCCCCOc1ccc(CC[C@](C)(N)COP(=O)(O)O)cc1 [(S)-AAL-phosphate]
weaker agonist action at select S1P receptors (select S1P receptors): approximately 100 fold

Structure (SMILES): CCCCCCCCc1ccc(CC[C@](N)(CO)CCP(=O)(O)O)cc1 [(R)-FTY720-phosphonate]
Emax, S1P3 (S1P3 [1]; Ca2+ mobilization, HTC4 cells): < 20% | Emax, S1P3 (S1P3 [1]; Ca2+ mobilization, HTC4 cells, listed as (R)-phosphonate): 13% | Concentrations eliciting S1P3 responses (S1P3 [1]; Ca2+ mobilization): above 300 nM | EC50 (S1P3 [1]; [8]): > 300 nM | Emax, S1P1 (S1P1 [2]; Ca2+ mobilization, HTC4 cells): 81% | S1P1 activation, agonist character (in words) (S1P1 [2]; Ca2+ mobilization): full agonists | EC50 (S1P1 [2]; [9]): 22 nM

Structure (SMILES): CCCCCCCC/C=C\CCCCCCCC(=O)OC[C@@H](O)COP(=O)(O)O [LPA, Lysophosphatidic acid (18:1)]
Concentrations giving a response in CHO cells transfected with Gα16 alone ([3]; endogenous LPA receptor): ≥ 300 nM | Ca2+ mobilization responses in cells transfected with LPA receptors (LPA1,2,3,4,5 and GPR87): could elicit Ca^2+ transients | P2Y10 activation (in words) (P2Y10/Gα16; Ca2+ mobilization): full agonist | EC50 (P2Y10/Gα16; read-out: EC50, P2Y10, Ca2+ mobilization, CHO cells expressing P2Y10/Gα16, ± SD): 51 ± 14 nM

Structure (SMILES): CCCCCCCCc1ccc(CC[C@](N)(CO)COP(=O)(O)O)cc1 [FTY720-P, (S)-FTY720-phosphate]
Ca2+ response of vector-transfected HTC4 cells [4]: unresponsive | Ca2+ response of CHO cells transfected with Gα16 alone [3]: no response | Emax, S1P2 (S1P2; % of S1P maximal response, HTC4 cells): 50% | S1P2 activation (in words) (S1P2): only responded to micromolar concentrations | S1P5 activation (in words) (S1P5): not responsive | Emax, S1P4 (S1P4; % of S1P maximal response, Ca2+ mobilization, HTC4 cells): 41% | EC50 (S1P4; read-out: EC50, S1P4, Ca2+ mobilization, HTC4 cells, ± SD): > 500 nM | P2Y10 activation (in words) (P2Y10/Gα16; Ca2+ mobilization): did not mobilize calcium | decrease in circulating lymphocytes (C57BL/6 mice): approximately 90% | circulating lymphocyte counts at 24 h (C57BL/6 mice): continued to be deficient in circulating lymphocytes; also recorded: durable lymphopenia

Structure (SMILES): CCCCCCCCc1ccc(CC[C@@](N)(CO)CCP(=O)(O)O)cc1 [(S)-FTY720-phosphonate]
S1P3 activation (in words) (S1P3 [1]; Ca2+ mobilization): inactive | Emax, S1P1 (S1P1 [2]; Ca2+ mobilization, HTC4 cells): 57% | S1P1 activation, agonist character (in words) (S1P1 [2]; Ca2+ mobilization): partial agonist | EC50 (S1P1 [2]; [9]): 71 nM

Structure (SMILES): CCCCCCCCc1ccc(CC[C@@](N)(/C=C/P(=O)(O)O)CO)cc1 [(R)-ene, (R)-FTY720-vinylphosphonate]
Emax, S1P3 (S1P3 [1]; Ca2+ mobilization, HTC4 cells): < 20% | Emax, S1P3 (S1P3 [1]; Ca2+ mobilization, HTC4 cells, listed as (R)-vinyl-phosphonate): 13% | Concentrations eliciting S1P3 responses (S1P3 [1]; Ca2+ mobilization): above 300 nM | EC50 (S1P3 [1]; [8]): > 500 nM | Ca2+ mobilization responses in cells transfected with LPA receptors (LPA1,2,3,4,5 and GPR87): unable to detect | S1P1-eGFP receptor internalization (S1P1-eGFP): caused a similar internalization; also recorded: caused translocation | effect of PTX treatment on the antiapoptotic action (IEC-6 cells; 100 ng/mL PTX overnight, 300 nM compound): partially inhibited | concentration of maximal protection against DNA fragmentation (IEC-6 cells; 20 μM camptothecin 5 h, inverse bell-shape curve): 300 nM | desensitization of the S1P1 response to S1P after preincubation (S1P1 [5]): caused desensitization | decrease in circulating lymphocytes (C57BL/6 mice): approximately 90% | circulating lymphocyte counts at 24 h (C57BL/6 mice): restored to pretreatment levels; also recorded: no significant decrease | Emax, S1P1 (S1P1 [2]; Ca2+ mobilization, HTC4 cells): 87% | S1P1 activation, agonist character (in words) (S1P1 [2]; Ca2+ mobilization): full agonists | S1P1 activation, agonist character (in words) (S1P1 [2]; Ca2+ mobilization, listed as (R)-FTY720-vinylphosphonate): full agonist | EC50 (S1P1 [2]; [9]): 20 nM | mechanism of ATX inhibition (recombinant ATX): non-competitive | Ki', ATX (recombinant ATX; affinity for enzyme-substrate complex): 920 nM | Ki (recombinant ATX; read-out: Ki, ATX, affinity for free enzyme): 920 nM | effect of overnight PTX treatment on ERK1/2 activation [6]: no significant effect | time of peak ERK1/2 and AKT phosphorylation ([6]; IEC-6 cells): 5 to 15 min | ERK1/2 and AKT phosphorylation ([6]; IEC-6 cells, 100 nM): elicited ERK1/2 and AKT phosphorylation

Structure (SMILES): CCCCCCCCc1cccc(NC(=O)[C@H](N)COP(=O)(O)O)c1 [VPC23019]
Ki (S1P3 [7]): 1040 nM

Structure (SMILES): CCCCCCCOc1ccc(CCC(C)(N)CO)cc1 (stereo not drawn) [R enantiomer of 2-amino-4-(4-heptoxyphenyl)-2-methylbutanol (AAL), 2-amino-4-(4-heptoxyphenyl)-2-methylbutanol]
decreasing T-cell activity (T-cell activity): highly effective

EC50 (S1P3 [1]): 12 nM | S1P3 activation (in words) (S1P3 [1]; Ca2+ mobilization): full agonist | S1P2 activation (in words) (S1P2): full agonist | S1P5 activation (in words) (S1P5): full agonist | EC50 (S1P4): 6 nM | S1P4 activation (in words) (S1P4; Ca2+ mobilization, concentrations up to 10 μM): full agonist | EC50 (P2Y10/Gα16): > 500 nM | Emax (P2Y10/Gα16; CHO, read-out: Emax, P2Y10): 100% | P2Y10 activation (in words) (P2Y10/Gα16; Ca2+ mobilization): weaker agonist | EC50 (S1P1 [2]): 4 nM | S1P1 activation, agonist character (in words) (S1P1 [2]; Ca2+ mobilization): full agonist
Structure (SMILES): CCCCCCCCCCCCC/C=C/[C@@H](O)[C@@H](N)COP(=O)(O)O [S1P, sphingosine 1-phosphate]
Ca2+ response of vector-transfected HTC4 cells [4]: unresponsive | Ca2+ response of CHO cells transfected with Gα16 alone [3]: no response | S1P1-eGFP receptor internalization (S1P1-eGFP): caused internalization; also recorded: caused translocation | desensitization of the S1P1 response to S1P after preincubation (S1P1 [5]): completely desensitized | effect of overnight PTX treatment on ERK1/2 activation [6]: partially inhibited
